Reference: BindingDB's records for doi:10.1021/jm801063n (University of Auckland, 2009)

test: Inhibition of recombinant perforin-mediated lysis of human Jurkat T cells by 51Cr release assay

| Compound | IC50 |
| --- | --- |
| Cc1cc2c(c(=S)[nH]1)C(=O)O/C2=C\c1ccc[nH]1 [(Z)-1-((1H-Pyrrol-2-yl)methylene)-6-methyl-4-thioxo-4,5-dihydrofuro[3,4-c]pyridin-3(1H)-one] | > 20 µM |
| Cc1cc2c(c(=S)[nH]1)C(=O)O/C2=C\c1ccc(C(F)(F)F)cc1 [(Z)-6-Methyl-4-thioxo-1-(4-(trifluoromethyl)benzylidene)-4,5-dihydrofuro[3,4-c]pyridin-3(1H)-one] | > 20 µM |
| Cc1ccc(/C=C2\OC(=O)c3c2cc(C)[nH]c3=S)cc1 [(Z)-6-Methyl-1-(4-methylbenzylidene)-4-thioxo-4,5-dihydrofuro[3,4-c]pyridin-3(1H)-one] | > 20 µM |

Next, values leading:

| IC50 | Compound |
| --- | --- |
| > 20 µM | Cc1cc2c(c(=S)[nH]1)C(=O)O/C2=C\c1ccc(OC(F)(F)F)cc1 [(Z)-6-Methyl-4-thioxo-1-(4-(trifluoromethoxy)benzylidene)-4,5-dihydrofuro[3,4-c]pyridin-3(1H)-one] |
| 4.1 µM | Cc1cc2c(c(=S)[nH]1)C(=O)O/C2=C\c1cccc2cc[nH]c12 [(Z)-1-((1H-Indol-7-yl)methylene)-6-methyl-4-thioxo-4,5-dihydrofuro[3,4-c]pyridin-3(1H)-one] |
